Source: patent US20040138301A1, “Chemical uncouplers for the treatment of obesity” (priority 2002, published 2004)

Assays:
isolated mitochondria = experiment: Assay (II): effect of chemical uncouplers on mitochondrial respiration using isolated mitochondria (oxygen consumption); type: biochemical
Procedure: Assay (II)—The Effect of Chemical Uncouplers on Mitochondrial Respiration Using Isolated Mitochondria.
This assay is used to investigate if the increase in glucose utilisation caused by the test compounds observed in the glucose utilisation assay is due to an increase in the respiration of the mitochondria. This is done by measuring oxygen consumption in isolated mitochondria.
A Clark oxygen electrode is used to determine the oxygen consumption. The isolated mitochondria are added to medium containing oxygen and nutrients (e.g. Succinate) and the rate of oxygen consumptions is measured, when stabilized a small amount of ADP is added to increase the respiration and an increase in the rate of oxygen consumption is measured. When the rate of oxygen consumption again has stabilized the test compound is added and a further increase in oxygen consumption is seen. This experiment is done with and without the addition of oligomycin which is an inhibitor of the ATP-synthase. Finally, the test compound is examined without adding ADP. If the test compound stimulates the rate of oxygen consumption in all setups, it is regarded as a chemical uncoupler.

HEP-G2 cells = experiment: cells; details: for EC50 / Emax / EC (Emax): Homo sapiens; for EC50: HepG2, 3 h, read-out: HEP-G2 EC50, HEP-G2 cells, glucose utilisation, 3 hours incubation; for Emax: HepG2, read-out: HEP-G2 Emax (% of FCCP), HEP-G2 cells, maximal stimulation relative to FCCP; for EC (Emax): HepG2, read-out: HEP-G2 Emax (μM), HEP-G2 cells, concentration at which Emax is achieved (CEmax)
Summary of the method: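 HEP-G2 cells were treated with compound for 3 h at 37 °C in MEM/0.5% BSA containing 10 μCi/ml D-(3-^3H(N))-glucose, then lysed with TCA; ^3H-water released via the respiratory chain was recovered by evaporation at 50 °C and counted. Values are corrected for non-specific and basal counts, expressed as % of maximal FCCP or DNP stimulation, and EC50 is from a variable-slope sigmoidal fit.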

Compound	EC50 (HEP-G2 cells) [nM]	Mito State-4 (isolated mitochondria)	Emax (HEP-G2 cells) [%]	EC (Emax) (HEP-G2 cells) [µM]	HEP-G2 Tox (HEP-G2 cells; human, 3 h)
N#CC(C#N)=NNc1ccc(OC(F)(F)F)cc1 [Example 27, Carbonylcyanide p-Trifluoromethoxy-Phenylhydrazone, reference compound]	3000	Ok	100	30	
Cc1cc(C(C#N)c2ccc(Cl)cc2)c(Cl)cc1NC(=O)c1c(C)c(Br)cc(C(C)(C)C)c1O (stereo not shown) [Example 56, 3-Bromo-5-Tert-Butyl-N-{5-Chloro-4-[(4-Chloro-Phenyl)-Cyano-Methyl]-2-Methyl-Phenyl}-6-Hydroxy-2-Methyl-Benzamide]	6600	Ok	100	100	
N#CC(C#N)=Cc1c(Cl)[nH]c2ccccc12 [Example 34, 2-(2-Chloro-1H-Indol-3-Ylmethylene)-Malononitrile]	1400	Ok	80	10	
CC(=C(C#N)C#N)c1cc(C(C)(C)C)c(O)c(C(C)(C)C)c1 [Example 75, 2-[1-(3,5-Di-Tert-Butyl-4-Hydroxy-Phenyl)-Ethylidene]-Malononitrile]	360	Ok	120	30	Tox 0.3 mM
N#CC(C#N)=Cc1c[nH]c2ccc(Cl)cc12 [Example 30, 2-((5-Chloro-1H-Indol-3-Yl)Methylene)Malononitrile]	19500	Ok	60	100	

Molecules with a lower EC50 (HEP-G2 cells), results first:

EC50 (HEP-G2 cells) [nM]	Compound	Mito State-4 (isolated mitochondria)	Emax (HEP-G2 cells) [%]	EC (Emax) (HEP-G2 cells) [µM]	HEP-G2 Tox (HEP-G2 cells; human, 3 h)
35	Cc1c(Br)cc(C(C)(C)C)c(O)c1C(=O)Nc1ccc([N+](=O)[O-])cc1Cl [Example 37, 3-Bromo-5-Tert-Butyl-N-(2-Chloro-4-Nitro-Phenyl)-6-Hydroxy-2-Methyl-Benzamide]	Ok	100	1	
310	CC(C)(C)c1cc(/C=C(\C#N)c2ccc([N+](=O)[O-])cc2)cc(C(C)(C)C)c1O [Example 77, 3-(3,5-Di-Tert-Butyl-4-Hydroxy-Phenyl)-2-(4-Nitro-Phenyl)-Acrylonitrile]	Ok	100	3	
30	Cc1c(Cl)cc(C(C)(C)C)c(O)c1C(=O)Nc1ccc([N+](=O)[O-])cc1C(F)(F)F [Example 50, 3-Tert-Butyl-5-Chloro-2-Hydroxy-6-Methyl-N-(4-Nitro-2-Trifluoromethyl-Phenyl)-Benzamide]	Ok	82	0.1	
30	Cc1c(Br)cc(C(C)(C)C)c(O)c1C(=O)Nc1ccc([N+](=O)[O-])cc1C(F)(F)F [Example 58, 3-Bromo-5-Tert-Butyl-6-Hydroxy-2-Methyl-N-(4-Nitro-2-Trifluoromethyl-Phenyl)-Benzamide]	Ok	100	0.1	
